Usually IC50 stands for the point on the concentration scale where inhibition reaches its midpoint. As usually defined, the inhibition is the relative decrease from the control value, in per cent.

The test system of one test is PC-3. The test can be described thus: Antiproliferative activity against AR-deficient human PC3 cells assessed as reduction in cell viability after 24 hrs by CCK-8 assay. Type of test: functional, cell-based. The settings on record: PC-3, 24 h.
The target in test [1] is T1, Androgen receptor (Homo sapiens) (UniProt P10275).
T1 sequence (whole entry): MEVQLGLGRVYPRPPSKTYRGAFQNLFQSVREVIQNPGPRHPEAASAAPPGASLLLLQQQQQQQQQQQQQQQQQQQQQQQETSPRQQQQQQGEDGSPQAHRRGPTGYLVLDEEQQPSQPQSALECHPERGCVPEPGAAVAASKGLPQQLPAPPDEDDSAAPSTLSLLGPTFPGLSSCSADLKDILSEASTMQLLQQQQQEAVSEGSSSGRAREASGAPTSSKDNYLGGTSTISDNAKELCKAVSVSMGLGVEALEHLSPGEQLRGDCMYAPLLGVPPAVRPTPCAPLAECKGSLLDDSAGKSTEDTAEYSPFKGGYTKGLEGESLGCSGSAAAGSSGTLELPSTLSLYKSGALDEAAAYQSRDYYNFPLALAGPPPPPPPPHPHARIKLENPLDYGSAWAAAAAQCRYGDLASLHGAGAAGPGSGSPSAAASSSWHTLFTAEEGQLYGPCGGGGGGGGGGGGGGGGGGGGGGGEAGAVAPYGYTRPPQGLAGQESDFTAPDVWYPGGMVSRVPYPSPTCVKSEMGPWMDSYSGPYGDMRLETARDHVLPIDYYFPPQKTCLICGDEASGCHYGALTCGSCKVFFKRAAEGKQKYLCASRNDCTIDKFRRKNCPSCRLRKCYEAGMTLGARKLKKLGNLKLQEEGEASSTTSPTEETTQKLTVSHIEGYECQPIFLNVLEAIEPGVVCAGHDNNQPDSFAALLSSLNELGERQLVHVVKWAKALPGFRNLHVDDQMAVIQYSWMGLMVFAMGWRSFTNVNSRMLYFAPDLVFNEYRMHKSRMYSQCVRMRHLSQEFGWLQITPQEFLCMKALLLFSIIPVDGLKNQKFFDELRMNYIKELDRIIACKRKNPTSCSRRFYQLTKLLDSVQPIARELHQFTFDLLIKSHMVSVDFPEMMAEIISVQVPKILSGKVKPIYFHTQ
The settings on record: at 10 µM.

Test [2] in a line: Antiproliferative activity against AR-rich human LNCaP-hr cells assessed as reduction in cell viability after 24 hrs by CCK-8 assay. Type of test: functional.
Another test concerns the target T2, Androgen receptor (Rattus norvegicus, UniProt P15207).
T2 sequence (P15207 whole entry): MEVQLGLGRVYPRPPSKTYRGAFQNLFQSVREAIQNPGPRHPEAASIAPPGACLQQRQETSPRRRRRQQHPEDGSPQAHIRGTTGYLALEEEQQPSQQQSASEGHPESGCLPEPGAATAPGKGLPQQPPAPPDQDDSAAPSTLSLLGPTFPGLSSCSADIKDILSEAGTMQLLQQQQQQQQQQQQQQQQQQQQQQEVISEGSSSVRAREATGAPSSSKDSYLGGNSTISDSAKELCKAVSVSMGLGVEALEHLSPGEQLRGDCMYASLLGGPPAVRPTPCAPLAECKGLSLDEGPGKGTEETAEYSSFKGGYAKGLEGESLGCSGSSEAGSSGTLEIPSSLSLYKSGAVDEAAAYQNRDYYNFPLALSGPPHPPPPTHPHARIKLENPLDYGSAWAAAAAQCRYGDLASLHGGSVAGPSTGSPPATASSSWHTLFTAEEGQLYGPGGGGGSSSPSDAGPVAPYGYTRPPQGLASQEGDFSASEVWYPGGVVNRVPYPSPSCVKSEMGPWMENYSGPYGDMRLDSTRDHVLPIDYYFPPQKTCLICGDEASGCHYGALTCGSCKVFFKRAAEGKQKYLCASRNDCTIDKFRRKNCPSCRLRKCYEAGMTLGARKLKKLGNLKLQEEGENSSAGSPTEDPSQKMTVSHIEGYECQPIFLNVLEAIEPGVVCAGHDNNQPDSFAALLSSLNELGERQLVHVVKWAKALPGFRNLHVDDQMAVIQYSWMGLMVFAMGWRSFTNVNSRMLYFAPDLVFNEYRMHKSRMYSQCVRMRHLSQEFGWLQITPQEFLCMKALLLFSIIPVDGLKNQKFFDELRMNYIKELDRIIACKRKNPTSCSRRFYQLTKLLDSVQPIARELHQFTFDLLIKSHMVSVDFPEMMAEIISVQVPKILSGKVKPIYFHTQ
Put plainly: Displacement of fluormone-AL Green from His-tagged/GST-fused recombinant rat androgen receptor LBD expressed in insect cells measured after 4 hrs by fluorescence polarization assay. A general note: In fluorescence polarisation assays a small probe gives low polarisation when free and higher when bound to something large.

Active and inactive are the calls of the source. No cut-off for these calls is given here.

As to `COc1ccccc1N1CCN(c2cc(=O)oc3c2ccc2ccccc23)CC1`, the half-inhibitory concentration (IC50) with PC-3 was > 200 µM; in test [2], 1.7 µM; at Androgen receptor it was 1260 nM. The inhibition in test [1] was determined as 61.2%.

`O=c1cc(N2CCN(c3ccccc3Cl)CC2)c2ccc3ccccc3c2o1`: the values for the IC50 (with PC-3; in test [2]; on Androgen receptor) were > 200 µM, 9.69 µM and 3870 nM, respectively. The same molecule returned an inhibition in test [1] of 51.2%.

As to `COc1ccc(N2CCN(c3cc(=O)oc4c3ccc3ccccc34)CC2)cc1`, the IC50 with PC-3 turned out to be 117 µM; in test [2] it was 5.6 µM; on Androgen receptor it was 1560 nM. In test [1], the inhibition came out at 59.1%.

As to `CCOc1ccccc1N1CCN(c2cc(=O)oc3c2ccc2ccccc23)CC1`, the IC50 was > 200 µM with PC-3, 1.43 µM in test [2] and 2080 nM on Androgen receptor. The molecule also returned an inhibition in test [1] of 58.5%.

On to `Cc1ccc(N2CCN(c3cc(=O)oc4c3ccc3ccccc34)CC2)cc1`, for which the IC50 in the test on PC-3 came out at 136 µM; in test [2], 7.7 µM; at Androgen receptor, 3020 nM. For the same molecule, in test [1], the inhibition was found to be 53.3%.

`C[C@]1(O)CC[C@H]2[C@@H]3CCC4=CC(=O)CCC4=C3C=C[C@@]21C`: in test [1], the inhibition result is “inactive”.

Regarding `O=c1cc(N2CCN(C(c3ccc(F)cc3)c3ccc(F)cc3)CC2)c2ccc3ccccc3c2o1`, the IC50 with PC-3 is > 200 µM; in test [2] it was 1.02 µM; at Androgen receptor it was 850 nM. This molecule also gave an inhibition in test [1] of 70.3%.

For `O=c1cc(N2CCN(c3ccc(Cl)cc3)CC2)c2ccc3ccccc3c2o1`, the IC50 is > 200 µM with PC-3, 1.3 µM in test [2] and 2560 nM at Androgen receptor. This molecule also returned an inhibition in test [1] of 53.7%.

Turning to `O=c1cc(N2CCN(c3ccc(F)cc3)CC2)c2ccc3ccccc3c2o1`, the IC50 in the test on PC-3 was > 200 µM; in test [2] it was 19.3 µM. In addition, the inhibition in test [1] was 43.5%.

As for `O=c1cc(N2CCN(c3ccc(C(F)(F)F)cc3)CC2)c2ccc3ccccc3c2o1`, the IC50 in the test with PC-3 was > 200 µM; in test [2], 12.3 µM. In test [1], this molecule gave an inhibition of 20.7%.

`N#Cc1ccc(N2CCN(c3cc(=O)oc4c3ccc3ccccc34)CC2)c(F)c1`: the IC50 in the test on PC-3 is > 200 µM; in test [2], 37.8 µM. This molecule also displayed an inhibition in test [1] of 30.2%.

On to `O=c1cc(N2CCN(c3ccccc3F)CC2)c2ccc3ccccc3c2o1`, for which the IC50 with PC-3 came to 124 µM; in test [2], 1.89 µM; at Androgen receptor, 3720 nM. This molecule also came in with an inhibition in test [1] of 52.3%.

Turning to `Cc1ccc(Cl)cc1N1CCN(c2cc(=O)oc3c2ccc2ccccc23)CC1`, the IC50 is > 200 µM with PC-3 and 15.3 µM in test [2]. This molecule gave an inhibition in test [1] of 48.3%.

For the molecule `O=c1cc(N2CCN(Cc3ccccc3)CC2)c2ccc3ccccc3c2o1`, the figures for the IC50 (in the test with PC-3; in test [2]; on Androgen receptor) were > 200 µM, 0.52 µM and 550 nM, respectively. Further, the inhibition in test [1] is 72.1%.

Regarding `O=c1cc(N2CCN(c3ccc(F)cc3F)CC2)c2ccc3ccccc3c2o1`, the IC50 was 122 µM in the test with PC-3 and > 50 µM in test [2]. This molecule gave an inhibition in test [1] of 45.1%.

On to `O=c1cc(N2CCN(c3ccccc3C(F)(F)F)CC2)c2ccc3ccccc3c2o1`, for which the IC50 turned out to be 108 µM in the test on PC-3, 1.14 µM in test [2] and 1040 nM at Androgen receptor. In test [1], the inhibition was determined as 65.4%.

Regarding `Cc1cccc(N2CCN(c3cc(=O)oc4c3ccc3ccccc34)CC2)c1`, the IC50 in the test on PC-3 was found to be 54.1 µM; in test [2] it was 32.5 µM. The inhibition in test [1] was 45.5%.

With `O=c1cc(N2CCN(c3ccccc3)CC2)c2ccc3ccccc3c2o1`, the IC50 in the test on PC-3 was > 200 µM; in test [2], 5.05 µM; at Androgen receptor it was 3940 nM. Moreover, in test [1], the inhibition was 51.2%.

For `O=c1cc(N2CCN(c3cccc(Cl)c3)CC2)c2ccc3ccccc3c2o1`, the results for the IC50 (with PC-3; in test [2]) were 165 µM and 2.9 µM, respectively. This molecule returned an inhibition in test [1] of 40.1%.

Consider `O=c1cc(N2CCN(c3ccc(Br)cc3)CC2)c2ccc3ccccc3c2o1`, for which the IC50 was > 200 µM with PC-3 and > 50 µM in test [2]. The inhibition in test [1] came out at 25.1%.

As for `Cc1ccccc1N1CCN(c2cc(=O)oc3c2ccc2ccccc23)CC1`, the IC50 in the test with PC-3 is 109 µM; in test [2], 4.43 µM; on Androgen receptor, 3540 nM. In test [1], this molecule had an inhibition of 53.1%.

On to `COc1cccc(N2CCN(c3cc(=O)oc4c3ccc3ccccc34)CC2)c1`, for which the IC50 with PC-3 is > 200 µM; in test [2] it was 13.3 µM. The inhibition in test [1] amounted to 41.2%.

Regarding `O=c1cc(N2CCN(c3ccccn3)CC2)c2ccc3ccccc3c2o1`, the IC50 with PC-3 is 150 µM; in test [2], 1.92 µM; at Androgen receptor, 2210 nM. The molecule also displayed an inhibition in test [1] of 54.5%.

As to `CC(C)(C)NC(=O)[C@H]1CC[C@H]2[C@@H]3CC[C@H]4NC(=O)C=C[C@]4(C)[C@H]3CC[C@]12C` [FINASTERIDE], the IC50 in test [2] was determined as 14.5 µM.

Source of the values: ChEMBL document CHEMBL4396966, “Synthesis, biological evaluation and molecular docking of 4-Amino-2H-benzo[h]chromen-2-one (ABO) analogs containing the piperazine moiety” (Bioorg Med Chem, 2019).
